Where two headings read alike, the source gives them in different places.
Columns and labels:
pgk1 = molecular target: T1, pgk1 (Mus musculus, UniProt P09411); test: Activity assay of pgk1 (GAPDH-coupled, absorbance at 340 nm); format: biochemical
T1 construct: His; made in house; host or cells: E. coli
T1 sequence (P09411 1-417): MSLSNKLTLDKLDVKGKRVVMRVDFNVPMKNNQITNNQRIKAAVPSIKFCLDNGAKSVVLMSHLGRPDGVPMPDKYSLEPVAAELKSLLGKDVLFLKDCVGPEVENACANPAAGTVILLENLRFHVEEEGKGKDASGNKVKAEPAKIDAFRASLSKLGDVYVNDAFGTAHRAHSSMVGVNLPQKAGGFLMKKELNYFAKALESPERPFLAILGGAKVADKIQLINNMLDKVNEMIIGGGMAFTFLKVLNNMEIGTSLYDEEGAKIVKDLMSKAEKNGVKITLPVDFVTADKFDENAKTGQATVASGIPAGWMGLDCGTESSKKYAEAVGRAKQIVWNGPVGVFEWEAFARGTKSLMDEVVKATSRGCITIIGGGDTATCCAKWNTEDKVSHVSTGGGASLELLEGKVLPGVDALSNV
Procedure: The recombinant mouse pgk1 protein (His-pgk1) was expressed in the E. Coli. The protein was purified by a Nickel column. The proteins were diluted to 0.15 unit /mL. Then, different concentrations of terazosin were added to determine the pgk1 activity.
According to the components of Colorimetric GAPDH Assay Kit (ScienCells), the reaction solution was prepared with solutions of GAPDH, HEPES, and MgSO4. A predetermined concentration of the compound of Formula I was added to the reaction solution (30 mM Hepes, 3 mM ATP, 0.22 mM NADH, 10 mM MgSO4, 10 mM 3-PGA, 3-4 U/ml GAPDH, pH 7.5). Absorbance was measured at 25 °C with a spectroscope (340 nm). Relative activity of pgk1 was calculated based on the changes of absorbance value within 1-10 minutes. The activity has a positive correlation with the changes of absorbance value. The absorbance of the same compound at 340 nm was subtracted in the test group.

[1] = test system: sepsis models (LPS; Cecal Ligation and Puncture); test: Effects against sepsis (LPS and CLP models), 7-day survival; format: in vivo, BALB/C mice; settings: i.p. once a day for 3 days at 0.4 mg/kg; 7-day period; P < 0.05 compared to negative controls
Procedure: After 1.5 hours, compounds were injected (i.p.) at a predetermined concentration. Mouse survival was examined every 12 hours for 7 days. Statistical significance of the difference in the survival rates was analyzed.
Another model is Cecal Ligation and Puncture (CLP) model of sepsis. Mice were anesthetized. A 1.5-2.0 cm long abdominal midline incision was made and the cecum was exposed. After ligation 5 mm from the cecal tip, the cecum was punctured once with a 22-gauge needle, and some stool was squeezed out. Then the cecum was put back into the abdomen and the abdomen was closed by running suture. After 1.5 hours, compounds were injected (i.p.) at a predetermined concentration. Mouse survival was examined every 12 hours for 7 days. Statistical significance of the difference in the survival rates was analyzed.
These compounds were individually injected (i.p.) once a day for 3 days at 0.4 mg/kg.

E. Coli O111:B4 = test: Oxford Cup test of antibiotic activity; format: cell-based; settings: after 24 hrs; terazosin 0.2µg, 2µg, 200µg, 2mg; ampicillin 2mg
Procedure: The antibiotic activity of terazosin was measured by Oxford Cup test. Oxford Cups containing different concentrations of terazosin were placed in the petri dish wherein E. Coli O111:B4 was cultured on LB medium. The effects of terazosin and ampicillin on the growth of E. Coli were examined after 24 hrs.

[2] = Effect on serum glucose in mice; format: in vivo; settings: Mus musculus, ip; 0.4 mg/kg i.p. once, measured 18 hours later; t-test P<0.01 for terazosin; read-out: reduction of the serum glucose level
Procedure: Mice were injected terazosin (0.4 mg/kg i.p.) once. The serum glucose level of the mice was measured 18 hours later. […] By the same method, exemplary compounds Co.1, Co.3, Co.7, Co.9, Co.13, Co.16, Co.19, Co.24, Co.27 and Co.32 as described in the present invention were all shown to be effective to reduce the serum glucose level by 20% to 50%.

cerebral thrombosis = test: Mouse model of cerebral thrombosis, infarct volume; format: in vivo; settings: 0.4 mg/kg i.p.; 6 mice per condition; t-test P<0.05
Procedure: In a mouse model of cerebral thrombosis, the mouse brains were stained after death from thrombosis. […] The statistical analysis was performed based on % infarct volume = white area/total area, 6 mice were tested for each condition. t-test, P<0.05.

[3] = read-out: Activity* (the times of pgk1 activity induced by 0.02µg/ml of the tested compound)
[4] = 0.02 µg/ml, read-out: activation of pgk1 represented by fold changes

Structure (SMILES) | fold induction at 0.02 µg/mL (pgk1; [3]) | inhibition in vivo at 0.4 mg/kg [2] [%] | infarct volume (% infarct volume = white area/total area) (cerebral thrombosis) | further results
COc1cc2c(N)nc(N3CCN(C(=O)C4CCCO4)CC3)nc2cc1F (stereo not shown) [Co.18] | 1.3 |  |  | survival against sepsis [1]: significantly increased survival against sepsis
CC1(C)S[C@@H]2[C@H](NC(=O)[C@H](N)c3ccccc3)C(=O)N2[C@H]1C(=O)O [ampicillin] |  |  |  | growth of E. coli (inhibition zones) (E. Coli O111:B4): shown to inhibit E. coli growth
COc1cc2nc(N3CCN(C(=O)C4CCCO4)CC3)nc(Nc3ccccc3)c2cc1OC (stereo not shown) [Co.12] | 2.6 |  |  | 
COc1c(OC)c(C(F)(F)F)c2c(N)nc(N3CCN(C(=O)C4CCCO4)CC3)nc2c1N1CCCCC1 (stereo not shown) [Co.27] | 0.9 | 20 to 50 |  | 
COc1c(OC)c(OC)c2c(N)nc(N3CCN(C(=O)C4CCCO4)CC3)nc2c1F (stereo not shown) [Co.28] | 1.2 |  |  | survival against sepsis [1]: significantly increased survival against sepsis
COc1c(OC)c(OC)c2c(N)nc(N3CCN(C(=O)C4CCCO4)CC3)nc2c1NC(C)=O (stereo not shown) [Co.29] | 2.6 |  | effective to reduce the infarct volume | survival against sepsis [1]: significantly increased survival against sepsis
Nc1nc(N2CCN(C(=O)C3CCCO3)CC2)nc2cc3c(cc12)OCO3 (stereo not shown) [Co.15] | 0.6 |  |  | 
Nc1nc(N2CCN(C(=O)C3CCCO3)CC2)nc2cc3cccnc3cc12 (stereo not shown) [Co.20] | 1.9 |  |  | 
CCOCCOc1cc2nc(N3CCN(C(=O)C4CCCO4)CC3)nc(N)c2cc1OCCOCC (stereo not shown) [Co.16] | 1.7 | 20 to 50 | effective to reduce the infarct volume | 
COc1cc2nc(N3CCN(C(=O)C4CCCO4)CC3)nc(NO)c2cc1OC (stereo not shown) [Co.4] | 3.4 |  | effective to reduce the infarct volume | survival against sepsis [1]: significantly increased survival against sepsis
COc1cc2nc(N3CCN(C(=O)C4CCCO4)CC3)nc(NC(=O)C(F)(F)F)c2cc1OC (stereo not shown) [Co.13] | 1.8 | 20 to 50 | effective to reduce the infarct volume | survival against sepsis [1]: significantly increased survival against sepsis
COc1cc2nc(N3CCN(C(=O)C4CCCO4)CC3)nc(NC(C)=O)c2cc1OC (stereo not shown) [Co.1] | 2.9 | 20 to 50 | effective to reduce the infarct volume | fold induction at 0.02 µg/mL (pgk1; [4]): 2.9; survival against sepsis [1]: significantly increased survival against sepsis
COc1cc2nc(N3CCN(C(=O)C4CCCO4)CC3)nc(NC3CCCCC3)c2cc1OC (stereo not shown) [Co.9] | 1.4 | 20 to 50 |  | survival against sepsis [1]: significantly increased survival against sepsis

Continued, in another order:

fold induction at 0.02 µg/mL (pgk1; [3]) | Structure (SMILES) | inhibition in vivo at 0.4 mg/kg [2] [%] | infarct volume (% infarct volume = white area/total area) (cerebral thrombosis) | further results
1.1 | COc1cc2c(N)nc(N3CCN(C(=O)C4CCCO4)CC3)nc2cc1OC(C)=O (stereo not shown) [Co.17] |  |  | 
2.1 | CCCCCCNc1nc(N2CCN(C(=O)C3CCCO3)CC2)nc2cc(OC)c(OC)cc12 (stereo not shown) [Co.7] | 20 to 50 | effective to reduce the infarct volume | 
0.6 | COc1c(OC)c(OC)c2c(N)nc(N3CCN(C(=O)C4CCCO4)CC3)nc2c1NC(=O)c1ccccc1 (stereo not shown) [Co.31] |  |  | 
0.7 | COc1cc2nc(N3CCN(C(=O)C4CCCO4)CC3)nc(N3CCCCC3)c2cc1OC (stereo not shown) [Co.10] |  |  | 
2.3 | COc1cc2nc(N3CCN(C(=O)C4CCCO4)CC3)nc(NCCOCCO)c2cc1OC (stereo not shown) [Co.2] |  |  | fold induction at 0.02 µg/mL (pgk1; [4]): 2.3
2.4 | CCCc1cc2nc(N3CCN(C(=O)C4CCCO4)CC3)nc(N)c2cc1OC (stereo not shown) [Co.22] |  |  | 
2.8 | COc1c(OC)c(OC)c2c(N)nc(N3CCN(C(=O)C4CCCO4)CC3)nc2c1OC1CC=CCC1 (stereo not shown) [Co.32] | 20 to 50 | effective to reduce the infarct volume | 
1.4 | Nc1nc(N2CCN(C(=O)C3CCCO3)CC2)nc2cc(N3CCCCC3)c(C(F)(F)F)cc12 (stereo not shown) [Co.19] | 20 to 50 | effective to reduce the infarct volume | 
1.5 | COc1cc2nc(N3CCN(C(=O)C4CCCO4)CC3)nc(NC(=O)c3ccccc3)c2cc1OC (stereo not shown) [Co.14] |  | effective to reduce the infarct volume | 
2.1 | COc1cc2nc(N3CCN(C(=O)C4CCCO4)CC3)nc(N(C)CCOCCO)c2cc1OC (stereo not shown) [Co.11] |  |  | 
2.7 | CCOCCOc1c(OC)c(OC)c(OCCOCC)c2c(N)nc(N3CCN(C(=O)C4CCCO4)CC3)nc12 (stereo not shown) [Co.25] |  |  | 
0.4 | COc1cc2c(N)nc(N3CCN(C(=O)C4CCCO4)CC3)nc2cc1OC1CC=CCC1 (stereo not shown) [Co.24] | 20 to 50 |  | 
1.5 | C=CCNc1nc(N2CCN(C(=O)C3CCCO3)CC2)nc2cc(OC)c(OC)cc12 (stereo not shown) [Co.5] |  |  | 
0.9 | COc1cc2nc(N3CCN(C(=O)C4CCCO4)CC3)nc(NCCCCC(F)(F)F)c2cc1OC (stereo not shown) [Co.8] |  | effective to reduce the infarct volume | 
0.7 | COc1cc2c(N)nc(N3CCN(C(=O)C4CCCO4)CC3)nc2cc1NC(=O)c1ccccc1 (stereo not shown) [Co.23] |  |  | 
3.2 | COc1c(OC)c(OC)c2c(N)nc(N3CCN(C(=O)C4CCCO4)CC3)nc2c1OC(C)=O (stereo not shown) [Co.26] |  |  | 
1.9 | COc1cc2nc(N3CCN(C(=O)C4CCCO4)CC3)nc(NN)c2cc1OC (stereo not shown) [Co.3] | 20 to 50 |  | 
1.8 | CCCCc1c(OC)c(OC)c(OC)c2c(N)nc(N3CCN(C(=O)C4CCCO4)CC3)nc12 (stereo not shown) [Co.30] |  |  | 
1.2 | C#CCNc1nc(N2CCN(C(=O)C3CCCO3)CC2)nc2cc(OC)c(OC)cc12 (stereo not shown) [Co.6] |  |  | 

— EP2924037A1, “QUINAZOLINE DERIVATE AND USE THEREOF AS APOPTOSIS INHIBITOR” (Linx Pharmaceutical Co., Ltd., priority 2012, dated 2013)
